Among the data in ChEMBL document CHEMBL1147713, “Inhibition of trypsin and urokinase by Cbz-amino(4-guanidinophenyl)methanephosphonate aromatic ester derivatives: the influence of the ester group on their biological activity” (Bioorg Med Chem Lett, 2006) are Ratio IC50 and IC50 values, retold here.

A word on the IC50: it is the concentration needed to halve the response being measured.

Molecules are shown by their SMILES.

A short description of assay [1]: Selectivity for trypsin over uPA by chromogenic assay.
Assay [2] deals with Urokinase-type plasminogen activator (Homo sapiens, UniProt P00749). Briefly: Inhibition of human uPA by chromogenic assay using Cbz-Val-Gly-Arg-pNA as chromogenic substrate.
Assay [3] in a line: Inhibition of bovine trypsin by chromogenic assay using Bzl-L-Arg-pNA as chromogenic substrate. Also noted: species or system Bos taurus.

In the case of `CS(=O)(=O)c1ccc(OP(=O)(Oc2ccc(S(C)(=O)=O)cc2)C(NC(=O)OCc2ccccc2)c2ccc(NC(=N)N)cc2)cc1` (centres undefined), the Ratio IC50 in assay [1] amounted to 434. The IC50 in assay [2] was 0.053 µM; in assay [3] (read-out: IC50), 23 µM.

For `N=C(N)Nc1ccc(C(NC(=O)OCc2ccccc2)P(=O)(Oc2ccc3ccccc3c2)Oc2ccc3ccccc3c2)cc1.O=C(O)C(F)(F)F` (centres undefined), the values for the half-maximal inhibitory concentration (IC50) in assay [2] and in assay [3] were 0.455 µM and “Not Active”, respectively.

Take `N=C(N)Nc1ccc(C(NC(=O)OCc2ccccc2)P(=O)(Oc2ccccc2)Oc2ccccc2)cc1` (centres undefined): the Ratio IC50 in assay [1] was determined as 0.21. Also, the results for the IC50 in assay [2] and in assay [3] (read-out: IC50) were 0.532 µM and 0.112 µM, respectively.

As to `Cc1ccc(OP(=O)(Oc2ccc(C)cc2)C(NC(=O)OCc2ccccc2)c2ccc(NC(=N)N)cc2)cc1` (centres undefined), the Ratio IC50 in assay [1] is 0.48. For the same molecule, the 50% inhibitory concentration (IC50) in assay [2] turned out to be 0.37 µM; in assay [3] (read-out: IC50), 0.176 µM.

With `CC(C)c1ccc(OP(=O)(Oc2ccc(C(C)C)cc2)C(NC(=O)OCc2ccccc2)c2ccc(NC(=N)N)cc2)cc1` (centres undefined), in assay [1], the Ratio IC50 turned out to be 0.29. Further, the figures for the half-maximal inhibitory concentration (IC50) in assay [2] and in assay [3] (read-out: IC50) were 0.208 µM and 0.061 µM, respectively.

Take `CC(C)(C)c1ccc(OP(=O)(Oc2ccc(C(C)(C)C)cc2)C(NC(=O)OCc2ccccc2)c2ccc(NC(=N)N)cc2)cc1` (centres undefined): the Ratio IC50 in assay [1] was 0.9. For the same molecule, the figures for the IC50 in assay [2] and in assay [3] (read-out: IC50) were 0.098 µM and 0.088 µM, respectively.

Turning to `CSc1ccc(OP(=O)(Oc2ccc(SC)cc2)C(NC(=O)OCc2ccccc2)c2ccc(NC(=N)N)cc2)cc1` (centres undefined), the Ratio IC50 in assay [1] came to 0.33. The figures for the half-maximal inhibitory concentration (IC50) in assay [2] and in assay [3] (read-out: IC50) were 0.026 µM and 0.0087 µM, respectively.

As to `COc1ccc(OP(=O)(Oc2ccc(OC)cc2)C(NC(=O)OCc2ccccc2)c2ccc(NC(=N)N)cc2)cc1` (centres undefined), the Ratio IC50 in assay [1] turned out to be 0.1. Moreover, the IC50 in assay [2] is 2.6 µM; in assay [3] (read-out: IC50), 0.251 µM.

As for `CC(C)(C)CC(C)(C)c1ccc(OP(=O)(Oc2ccc(C(C)(C)CC(C)(C)C)cc2)C(NC(=O)OCc2ccccc2)c2ccc(NC(=N)N)cc2)cc1` (centres undefined), the Ratio IC50 in assay [1] was found to be 11.3. Moreover, the IC50 was 0.204 µM in assay [2] and 2.31 µM in assay [3] (read-out: IC50).

Regarding `CCc1ccc(OP(=O)(Oc2ccc(CC)cc2)C(NC(=O)OCc2ccccc2)c2ccc(NC(=N)N)cc2)cc1` (centres undefined), the Ratio IC50 in assay [1] was 0.002. For the same molecule, the concentration for half-maximal inhibition (IC50) in assay [2] is 7.8 µM; in assay [3] (read-out: IC50), 0.017 µM.
